Measurements as given in patent US20160220582A1, “COMBINATION OF LUPEOL ACETATE AND CURCUMIN USED FOR THE TREATMENT OR PREVENTION OF ACTIVATED OSTEOCLAST PRECURSOR ASSOCIATED DISORDERS” (priority 2015, published 2016).

Key:
[1] = system: collagen-induced arthritis (CIA) mice; experiment: Histopathology of joints (H & E stain) in CIA mice; assay type: in vivo, DBA/1J mice; conditions: day 43
Text: To investigate the therapeutic efficacy of LA combined with curcumin on the histological damage in CIA mice, the mice were scarified on day 43 after arthritis induction. The joints of four limb of each mouse were excised and fixed with paraformaldehyde then embedded by paraffin and sectioned. Slides were stained with haematoxylin and eosin (H & E), and were observed under microscope.

[2] = clinical application; cited from earlier work
arthritis = conditions: mice; cited from earlier work
[3] = Body weight tracking in CIA mice; assay type: in vivo
Protocol: Eight-week-old DBA/1J mice (purchased from Jackson lab, ME, USA and housed in the Animal center of National Yang Ming University under pathogen-free conditions according to the Institutional Animal Care and Committee guidelines) were used. 100 μl of arthritis-inducing adjuvant (prepared by mixing Complete Freund's Adjuvant (5 mg/ml heat-killed M. tuberculosis in incomplete Freund's Adjuvant) (Chondrex, WA, USA) with equal volume of bovine type II collagen (2 mg/ml solution in 0.05 M acetic acid) (Chondrex, WA, USA)) is injected into the dermis of tail (intra-dermal, i.d.) using a 30 G syringe; and a 50 μl second dose of same ingredients is injected in the same way at an interval of 21 days. The symptoms are produced at about six days after the second dose injection, with an induction rate of 100%. The CIA mice were established and treated with LA 25 mg/kg alone, LA 50 mg/kg alone, Cur 50 mg/kg alone and LA 25 mg/kg+Cur 50 mg/kg after second immunization once per day. Using animals treated with deionized distilled water (ddH2O) containing 0.1% dimethyl sulfoxide (DMSO, Sigma, USA) as the normal mice group. Signs of arthritis were monitored until Day 43.

[4] = system: collagen-induced arthritis (CIA) mice; experiment: 18F-FDG PET of joints in CIA mice; assay type: in vivo, DBA/1J mice
Text: Apart from blood analysis, current clinical diagnosis will also use X-ray as an evaluation basis. Since X-ray image can only diagnose rheumatoid arthritis when the bone has been damaged severely at late stage, it could not be an effective evaluation tool. ^18F-FDG can be used as a tracer to observe and evaluate its accumulation during rheumatoid arthritis.
Repeated ^18F-FDG PET in vivo determination of disease severity in knee joints and paws on 20, 25, 32, 39 and 43 days after arthritis induction. Mice were anesthetized using 1-3% isoflurane and were intravenous injected with 0.5 mCi/100 μl (18.5 MBq) of ^18F-FDG 40 min before images acquisition. The emission scans were performed using an animal micro/PET scan (Tri-Modality FLEX Triumph™ Pre-Clinical Imaging System). All images were acquired for 40 min and reconstructed by software supplied by the manufacturer. The ROIs were selected, and the accumulation of ^18F-FDG of each ROI was further analyzed by Amide software.

[5] = system: collagen-induced arthritis (CIA) mice; experiment: Micro-CT bone density of femur in CIA mice; assay type: in vivo, DBA/1J mice; conditions: day 32, 39 and 43
Protocol: Micro-CT images were acquired from the Tri-Modality FLEX Triumph™ Pre-Clinical Imaging System (Gamma MedicaIdeas; Northridge, Calif.). The ROI was analyzed visually in three different slices: transverse, coronal, and sagittal. Individual ROI was used to create 3D representations of the bones of interest. For each specific bone ROI, the total number of pixels and mean pixel intensity across all slices were used to measure bone volume and density.

RAW 264.7 cells = experiment: MTT cell viability assay; conditions: RAW264.7, 24 h; LA 10-80 μM, Cur 2.5-10 μM, 10 μM Cur+10-80 μM LA
Protocol: RAW 264.7 cells (a mouse macrophage cell line) were treated with different concentrations of lupeol acetate (10, 20, 40, 80 μM), curcumin (2.5, 5, 7.5, 10 μM) and combination (10 μM Cur+10 μM LA, 10 μM Cur+20 μM LA, 10 μM Cur+40 μM LA, 10 μM Cur+80 μM LA) for 24 h.
5×10^4 RAW264.7 cells/well were seeded in 96-well culture dishes, and treated with directed concentration of lupeol acetate (LA), curcumin (Cur) and combination for 24 hours after the 24-hr attachment. After removing the culture medium, 100 μl of 0.5 mg/ml MTT solution was added, and the cells were incubated at 37° C. for 4 hours. The mitochondrial enzyme (succinate dehydrogenase, SDH) in living cells will react with tetrazolium bromide in the MTT solution and form formazan blue-purple crystals. The MTT solution was removed and 200 μl DMSO was added to dissolve the blue-purple crystal, and then the O.D. (optical density) value was read under wavelength of 570 nm with an ELISA reader (TECAN Sunrise, USA). The relative cell viability is calculated by comparing the absorbance value of drug treated group with that of the control group (setting the value of control group as 100%).

[6] = system: inflammatory condition induced by carrageenan; conditions: mice; Lucetti et al. 2010; cited from earlier work
NF-κB = experiment: Ex vivo electrophoretic mobility shift assay (EMSA); assay type: in vivo, DBA/1J mice
Protocol: The LightShift Chemiluminescent EMSA kit (Pierce, Rockford, Ill., USA) was used in the analysis for NF-κB/DNA binding activity. Nuclear extracts were incubated with the biotin labeled DNA probes at room temperature for 20 minutes. The separated DNA/protein complexes from the free oligonucleotide on 10% polyacrylamide gel were transferred to a nylon membrane. The nylon membrane was immersed in ECL (Pierce, Rockford, Ill., USA) and reacted to emit cold light (luminescence), and then exposed to the film for the observation of NF-κB activity. Using IMAGE J software (National Institutes of Health), the obtained images were quantified to blackening degree; the blackening degree of the protein to be observed is divided by the value obtained in the control group to compare the differences of each group in the expression level of nuclear proteins.

[7] = system: collagen-induced arthritis (CIA) mice; experiment: Ex vivo Western blotting of leg proteins of CIA mice; assay type: in vivo, DBA/1J mice; conditions: day 32
Protocol: The mice were sacrificed by cervical dislocation on the 32nd day of the animal experiment. The whole leg of mouse was removed, and the leg tissue was ground by adding an appropriate amount of lysis buffer (tissue protein extraction reagent, T-PER, Pierce Protein Biology Products, IL, USA), centrifuged at 15,000 rpm for 20 minutes, and the supernatant is taken as the sample for each group.
Mice were sacrificed at the peak of arthritis (on day 32), the protein extraction was isolated from legs of each group.

rheumatoid arthritis = conditions: mice; high doses (100 mg/kg, 12 days) necessary; US 20120177754; cited from earlier work

Compound	histopathology of joints: immune cell infiltration and cartilage destruction ([1]; 50 mg/kg)	bioavailability [2]	occurrence of inflammation and progression of arthritis (arthritis)	tolerability / general toxicity ([3]; mouse, in vivo)	18F-FDG accumulation in knee and tarsal joint / leg swelling ([4]; 50 mg/kg alone)	bone density of femur vs CIA mice [5]	cytotoxic effects, cell viability (MTT) (RAW 264.7 cells)	histopathology of joints: immune cell infiltration and cartilage destruction ([1]; 25 mg/kg)	inflammatory condition induced by carrageenan [6]	activation of NF-κB (NF-κB; LA25 (25 mg/kg))	activation of NF-κB (NF-κB; LA50 (50 mg/kg))	tolerability / general toxicity ([3]; CIA mice, throughout the experimental period)	18F-FDG accumulation in knee and tarsal joint / leg swelling ([4]; 25 mg/kg alone)	arthritis-related proteins ([7]; LA25 (25 mg/kg))	arthritis-related proteins ([7]; LA50 (50 mg/kg))	inhibiting inflammation and treatment of rheumatoid arthritis (rheumatoid arthritis)
COc1cc(/C=C/C(=O)CC(=O)/C=C/c2ccc(O)c(OC)c2)ccc1O [Cur, curcumin]	moderate immune cell infiltration and cartilage destruction	poor bioavailability	inhibit	well-tolerated	still have leg swelling on one side	significantly higher	–	–	–	–	–	–	–	–	–	–
lupeol acetate [LA]	no inflammation and cartilage destruction	–	–	–	–	significantly higher	no cytotoxic effects	moderate immune cell infiltration and cartilage destruction	effectively mitigate	significantly suppressed	significantly suppressed	well-tolerated	still have leg swelling on one side	improvement	improvement	significant therapeutic effect
